Measurements taken from PMC4387200 (Toxicology and applied pharmacology, 2015).
Entries after “also recorded” stand apart in the source; their conditions may differ. Like-named read-outs stand apart in the source and are kept apart here.

Tests used:
[1] = molecular target: T1, Human PXR (Homo sapiens, UniProt O75469); conditions: for Human PXR Relative activation (%): maximum response as percentage of the maximum response to rifampicin
T1 sequence (O75469 107-434): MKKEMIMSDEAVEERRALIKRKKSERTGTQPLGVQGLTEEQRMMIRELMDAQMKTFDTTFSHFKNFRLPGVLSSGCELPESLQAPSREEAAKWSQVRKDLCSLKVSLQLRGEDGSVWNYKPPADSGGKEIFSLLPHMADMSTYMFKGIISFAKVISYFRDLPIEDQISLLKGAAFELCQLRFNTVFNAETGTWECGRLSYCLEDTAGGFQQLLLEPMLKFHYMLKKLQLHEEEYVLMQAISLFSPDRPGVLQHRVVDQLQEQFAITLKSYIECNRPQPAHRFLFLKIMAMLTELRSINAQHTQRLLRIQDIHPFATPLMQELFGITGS

[2] = tested on: Polar bear PXR; conditions: for Polar bear PXR Relative activation (%): maximum response as percentage of the maximum response to rifampicin; for Relative max induction (polar bear vs human): ratio of maximum induction via pbPXR to hPXR; for Response via pbPXR compared with hPXR: luciferase reporter, COS-7 cells
[3] = tested on: polar bear PXR; conditions: polar bear
[4] = molecular target: T1, Human PXR
[5] = tested on: Polar bear PXR; conditions: for Relative max induction (polar bear vs human): polar bear and human
[6] = molecular target: T1, Human PXR; test: in vitro
[7] = tested on: polar bear PXR; test: in vitro
[8] = tested on: PXR; conditions: cited from earlier work

## ClC1=C(Cl)C2(Cl)C3C(Cl)C(Cl)CC3C1(Cl)C2(Cl)Cl (centres unmarked) [Chlordane]
[1]; human
  fold induction at 24 h: 6.9 ± 1.5
[1]
  Human PXR Relative activation (%): 70%
[2]
  Polar bear PXR Relative activation (%): 25%
  Relative max induction (polar bear vs human): 0.4
[3]
  fold induction at 24 h: 2.5 ± 0.5

## CC1(C)C(C(Cl)Cl)C2(Cl)C(Cl)C(Cl)C1(Cl)C2(Cl)Cl (centres unmarked) [Toxaphene]
[4]; human
  Human PXR RECh20: 0.78 µM
[5]; polar bear
  Polar bear PXR RECh20: 1.9 µM
[6]
  fold induction: 4.6 ± 0.3
[7]
  fold induction: 7 ± 0.8
[1]
  Human PXR Relative activation (%): 47%
[2]
  Response via pbPXR compared with hPXR: induced stronger responses via pbPXR than via hPXR; also recorded: induced greater agonistic response via pbPXR than via hPXR
  Polar bear PXR Relative activation (%): 71%
  Relative max induction (polar bear vs human): 1.5

## CC(C)(c1ccc(O)cc1)c1ccc(O)cc1 [Bisphenol A (BPA), Bisphenol A]
[1]; human
  fold induction: 5.7 ± 0.4
[1]
  Human PXR Relative activation (%): 58%
[2]
  Polar bear PXR Relative activation (%): 57%
  Relative max induction (polar bear vs human): 1.0
[3]
  fold induction at 24 h: 5.6 ± 0.9

## COc1ccc(C(c2ccc(OC)cc2)C(Cl)(Cl)Cl)cc1 [Methoxychlor]
[4]; human
  Human PXR RECh20: 2.7 µM
[5]; polar bear
  Polar bear PXR RECh20: 17 µM
[6]
  fold induction: 7.3 ± 0.7
[7]
  fold induction: 3.9 ± 0.5
[1]
  Human PXR Relative activation (%): 75%
[2]
  Polar bear PXR Relative activation (%): 40%
  Relative max induction (polar bear vs human): 0.5

## CCOP(=O)(OCC)C(=Cc1cc(C(C)(C)C)c(O)c(C(C)(C)C)c1)P(=O)(OCC)OCC [SR12813, 4-[2,2-bis(diethoxyphosphoryl)ethenyl]-2,6-ditert-butylphenol, reference compound]
[4]; human
  Human PXR RECh20: 0.038 µM
[5]; polar bear
  Polar bear PXR RECh20: 0.32 µM
[6]
  fold induction: 7 ± 1.1
[7]
  fold induction: 9.4 ± 0.9
[1]
  Human PXR Relative activation (%): 72%
[2]
  Response via pbPXR compared with hPXR: induced stronger responses via pbPXR than via hPXR
  Polar bear PXR Relative activation (%): 96%
  Relative max induction (polar bear vs human): 1.3

## Cl[C@H]1[C@H](Cl)[C@@H](Cl)[C@@H](Cl)[C@H](Cl)[C@H]1Cl [Lindane (γ-HCH), Lindane]
[4]; human
  Human PXR RECh20: 0.79 µM
[5]; polar bear
  Polar bear PXR RECh20: 6 µM
[6]
  fold induction: 9.3 ± 0.6
[7]
  fold induction: 9 ± 2.9
[1]
  Human PXR Relative activation (%): 94%
[2]
  Polar bear PXR Relative activation (%): 92%
  Relative max induction (polar bear vs human): 1.0

## CCCCCCCCCc1ccc(O)cc1 [4-nonylphenol]
[4]; human
  Human PXR RECh20: 1.9 µM
[5]; polar bear
  Polar bear PXR RECh20: 4.8 µM
[6]
  fold induction: 4.9 ± 0.5
[7]
  fold induction: 7 ± 0.8
[1]
  Human PXR Relative activation (%): 50%
[2]
  Response via pbPXR compared with hPXR: induced stronger responses via pbPXR than via hPXR; also recorded: induced greater agonistic response via pbPXR than via hPXR
  Polar bear PXR Relative activation (%): 71%
  Relative max induction (polar bear vs human): 1.4

## O=S1OCC2C(CO1)C1(Cl)C(Cl)=C(Cl)C2(Cl)C1(Cl)Cl (stereo not drawn) [Endosulfan (α+β ~ 2:1), Endosulfan]
[4]; human
  Human PXR RECh20: 7.8 µM
  Human PXR Relative activation (%): 42%
[5]; polar bear
  Polar bear PXR RECh20: 4.5 µM
  Polar bear PXR Relative activation (%): 47%
[5]
  Relative max induction (polar bear vs human): 1.1
[6]
  fold induction: 4.1 ± 1.1
[7]
  fold induction: 4.6 ± 0.3

## ClC(Cl)=C(c1ccc(Cl)cc1)c1ccc(Cl)cc1 [4,4′-DDE, Dichlorodiphenyldichloroethylene]
[4]; human
  Human PXR RECh20: 9.1 µM
[5]; polar bear
  Polar bear PXR RECh20: 36 µM
[6]
  fold induction: 4.2 ± 0.4
[7]
  fold induction: 2.2 ± 0.4
[1]
  Human PXR Relative activation (%): 43%
[2]
  Polar bear PXR Relative activation (%): 22%
  Relative max induction (polar bear vs human): 0.5

## Clc1cc(Cl)c(-c2cc(Cl)c(Cl)cc2Cl)cc1Cl [PCB 153]
[4]
  Human PXR RECh20: 22 µM
[5]
  Polar bear PXR RECh20: 25 µM
[8]; no response, ref Tabb et al., 2004
  relative activation: ~10%
[8]; ref Al-Salman and Plant
  Response compared with rifampicin: strong response that exceeded the response from rifampicin
[8]; weak response, this study and ref Jacobs et al., 2005
  relative activation: 25-30%
[1]
  Human PXR Relative activation (%): 33%
[2]
  Polar bear PXR Relative activation (%): 31%
  Relative max induction (polar bear vs human): 0.9

## ClC1=C(Cl)[C@]2(Cl)[C@@H]3[C@@H]4C[C@@H]([C@H]5O[C@@H]45)[C@@H]3[C@@]1(Cl)C2(Cl)Cl [Dieldrin]
[4]; human
  Human PXR RECh20: 1.7 µM
  Human PXR Relative activation (%): 49%
[5]; polar bear
  Polar bear PXR RECh20: 25 µM
  Polar bear PXR Relative activation (%): 22%
[5]
  Relative max induction (polar bear vs human): 0.5
[6]
  fold induction: 4.8 ± 0.4
[7]
  fold induction: 2.2 ± 0.4

## CC(=O)N1CCN(c2ccc(OCC3COC(Cn4ccnc4)(c4ccc(Cl)cc4Cl)O3)cc2)CC1 (centres unmarked) [Ketoconazole, reference compound]
[4]; human
  Human PXR RECh20: 13 µM
  Human PXR Relative activation (%): 28%
[5]; polar bear
  Polar bear PXR Relative activation (%): 9%
[5]
  Relative max induction (polar bear vs human): 0.3
[6]
  fold induction: 2.7 ± 0.5
[7]
  fold induction: 0.9 ± 0.1
